Experimental data as given in US20240217985A1, “CRYSTALLINE FORM OF AN MDM2-p53 INHIBITOR AND PHARMACEUTICAL COMPOSITIONS” (Boehringer Ingelheim International GmbH, priority 2022, published 2024).

Tests used:
[1] = Accelerated stress test, stability at 40°C/75% RH (XRPD and HPLC); assay type: physicochemical; conditions: Example 1 material
Procedure: (§1) Crystalline materials of Compound A of the present invention were exposed to various temperature and humidity stress conditions and investigated by XRPD and HPLC in order to investigate their physical and chemical stability.
The crystalline form of Compound A of the present invention (prepared according to the procedure described in Example 1) was open stored under heat and humidity stress conditions of 40° C. and 75% RH for 6 months.

[2] = Accelerated stress test, stability at 25°C/60% RH (XRPD and HPLC); assay type: physicochemical; conditions: Example 1 material; for Impurity 1 / Impurity 2 / Impurity 3 / Impurity 4 / Impurity 5 / Total impurities: 25°C/60% RH open storage
Procedure: as §1
The crystalline form of Compound A of the present invention (prepared according to the procedure described in Example 1) was open stored under humidity stress conditions of 25° C. and 60% RH for 6 months.

[3] = Accelerated stress test, stability at 60°C/80% RH (XRPD and HPLC); assay type: physicochemical; conditions: for Impurity 1 / Impurity 2 / Impurity 3 / Impurity 4 / Impurity 5 / Total impurities: 60°C/80% RH open storage
Procedure: as §1
The crystalline form of Compound A of the present invention (prepared according to the procedure described in Example 1 and 3, respectively) was open stored under heat and humidity stress conditions of 60° C. and 80% RH for 3 days.
For example, the increase in total impurities of crystalline compound A obtained according to the procedure of Example 3 was below 0.5%. Table 9, provides the chemical stability data of the crystalline compound A obtained according to the procedure of Example 1.

[4] = Accelerated stress test, stability at 70°C and 105°C (XRPD and HPLC); assay type: physicochemical; conditions: for Impurity 1 / Impurity 2 / Impurity 3 / Impurity 4 / Impurity 5 / Total Imp.: closed glass container
Procedure: as §1
The crystalline form of Compound A of the present invention (prepared according to the procedure described in Example 1) was stored in closed glass containers at heat stress condition of 70° C. for 3 weeks. In addition, the crystalline form of Compound A of the present invention (prepared according to the procedures described in Example 1 and 3, respectively) was stored in closed glass containers at heat stress condition of 105° C. for 24 hours.
For example, the increase in total impurities of crystalline compound A obtained according to the procedure of Example 3 was below 0.5%. Table 10, provides the chemical stability data of the crystalline compound A obtained according to the procedure of Example 1.

[5] = Gravimetric moisture sorption; assay type: physicochemical; conditions: 0 to 90% relative humidity, 25.0°C
Procedure: The crystalline form of Compound A of the present invention was subjected to a gravimetric moisture sorption experiment using a DVS intrinsic moisture sorption analyzer (Surface Measurement System). The measurement was conducted in relative humidity steps of 10%. The time per step was set to a minimum of 5 minutes and a maximum of 6 hours. If an equilibrium condition with a constant mass of ±0.02% within 10 min was reached before the maximum time, the subsequent step was applied before the maximum time of 6 hours. If no equilibrium was achieved the consecutive humidity step was applied after the maximum time of 6 hours. The temperature was (25.0±0.1° C.)

[6] = tiny-TIM in vitro bioaccessibility under simulated fasted conditions; assay type: in vitro ADME
Procedure: A tiny-TIM system was used as a model for the simulation of the physiological processes occurring in human stomach and small intestine to study the in vitro bioaccessibility of the crystalline Compound A of the present invention (prepared according to the procedure described in Example 1) under simulated fasted conditions. Thereby, the impact of drug substance particle size distribution (PSD) and amorphous content on bioaccessibility was evaluated by using tablets manufactured from a range of drug substance batches with different amorphous contents and variations in PSD. The investigated drug products also cover extreme conditions such as low amorphous content and coarse PSD as well as high amorphous content and fine PSD.

[7] = initial, before 40°C/75% RH storage
[8] = open storage 40°C/75% RH, 6 months
[9] = open storage 25°C/60% RH, 6 months
[10] = Example 1 material, open storage 60°C/80% RH, 3 days
[11] = Example 3 material, open storage 60°C/80% RH, 3 days
[12] = Example 1 material, 70°C, 3 weeks
[13] = Example 1 material, 105°C, 24 hours
[14] = Example 1 material, 70°C, 1 week
[15] = Example 1 material, 70°C, 2 weeks
[16] = Example 1 material, closed glass containers, 70°C, 3 weeks
[17] = Example 1 material, closed glass containers, 105°C, 24 hours
[18] = Example 3 material, closed glass containers, 105°C, 24 hours

In the case of Cc1c(C(=O)O)ccc2c3n(nc12)[C@@H]1[C@H](C3)N(CC2CC2)[C@@]2(C(=O)Nc3cc(Cl)ccc32)[C@H]1c1cccc(Cl)c1F [crystalline form of Compound A, (2′S,3′S,3a′S,10a′S)-6-chloro-3′-(3-chloro-2-fluorophenyl)-1′-(cyclopropylmethyl)-6′-methyl-2-oxo-1,2,3′,3a′,10′,10a′-hexahydro-1′H-spiro[indole-3,2′-pyrrolo[2′,3′:4,5]pyrrolo[1,2-b]indazole]-7′-carboxylic acid], the “stability under accelerated stress conditions (summary)” value ([1]; 40°C/75% relative humidity, 6 months) is reported as “stable”, the “Impurity A, Initial Peak Area-%” value [1, 7] is reported as 0.06% and the “Impurity B, Initial Peak Area-%” value [1, 7] is reported as 0.06%. For the same compound, the “Impurity C, Initial Peak Area-%” value [1, 7] was 0.05%, the “Impurity D, Initial Peak Area-%” value [1, 7] was 0.23% and the “Impurity E, Initial Peak Area-%” value [1, 7] was 0.31%. The “Total impurities, Initial Peak Area-%” value [1, 7] was 0.71%, the “Impurity A, Peak Area-% at 6 months” value [1, 8] was “Not detected” and the “Impurity B, Peak Area-% at 6 months” value [1, 8] was 0.06%. For the same compound, the “Impurity C, Peak Area-% at 6 months” value [1, 8] was 0.06%, the “Impurity D, Peak Area-% at 6 months” value [1, 8] was 0.25% and the “Impurity E, Peak Area-% at 6 months” value [1, 8] was 0.33%. The “Total impurities, Peak Area-% at 6 months” value [1, 8] was 0.70%, the “chemical stability: impurity profile of initial sample vs stressed sample” value [1, 8] was “no significant increase of chemical impurities” and the “physical stability: XRPD of initial sample vs stressed sample” value [1, 8] was “No differences in reflection positions”. The “Impurity 1” value ([2]; 1 month) was 0.07%, the “Impurity 2” value ([2]; 1 month) was ≤0.05% and the “Impurity 3” value ([2]; 1 month) was 0.06%. For the same compound, the “Impurity 4” value ([2]; 1 month) was 0.23%, the “Impurity 5” value ([2]; 1 month) was 0.25% and the Total impurities ([2]; 1 month) was 0.61%. The “Impurity 1” value ([2]; 2 months) was 0.07%, the “Impurity 2” value ([2]; 2 months) was ≤0.05% and the “Impurity 3” value ([2]; 2 months) was 0.06%. For the same compound, the “Impurity 4” value ([2]; 2 months) was 0.23%, the “Impurity 5” value ([2]; 2 months) was 0.25% and the Total impurities ([2]; 2 months) was 0.61%. The “Impurity 1” value ([2]; 3 months) was 0.07%, the “Impurity 2” value ([2]; 3 months) was ≤0.05% and the “Impurity 3” value ([2]; 3 months) was ≤0.05%. For the same compound, the “Impurity 4” value ([2]; 3 months) was 0.23%, the “Impurity 5” value ([2]; 3 months) was 0.25% and the Total impurities ([2]; 3 months) was 0.60%. The “Impurity 1” value ([2]; 6 months) was 0.07%, the “Impurity 2” value ([2]; 6 months) was ≤0.05% and the “Impurity 3” value ([2]; 6 months) was 0.06%. For the same compound, the “Impurity 4” value ([2]; 6 months) was 0.23%, the “Impurity 5” value ([2]; 6 months) was 0.27% and the Total impurities ([2]; 6 months) was 0.63%. The “Impurity 1” value ([2]; Start) was 0.08%, the “Impurity 2” value ([2]; Start) was 0.06% and the “Impurity 3” value ([2]; Start) was ≤0.05%. The “Impurity 4” value ([2]; Start) was 0.26%, the “Impurity 5” value ([2]; Start) was 0.26% and the Total impurities ([2]; Start) was 0.66%. For the same compound, the “stability under stress conditions (summary)” value ([2]; 25°C/60% relative humidity, 6 months) was “stable”, the “chemical stability: impurity profile of initial samples vs stressed samples” value [2, 9] was “no significant increase of chemical impurities” and the “physical stability: XRPD of initial sample vs stressed sample” value [2, 9] was “No differences in reflection positions”. For the same compound, the “Impurity 1” value ([3]; Example 1 material, 3 days) was 0.07%, the “Impurity 2” value ([3]; Example 1 material, 3 days) was ≤0.05% and the “Impurity 3” value ([3]; Example 1 material, 3 days) was 0.07%. For the same compound, the “Impurity 4” value ([3]; Example 1 material, 3 days) was 0.24%, the “Impurity 5” value ([3]; Example 1 material, 3 days) was 0.31% and the Total impurities ([3]; Example 1 material, 3 days) was 0.69%. The “Impurity 1” value ([3]; Example 1 material, Start) was 0.08%, the “Impurity 2” value ([3]; Example 1 material, Start) was 0.06% and the “Impurity 3” value ([3]; Example 1 material, Start) was ≤0.05%. The “Impurity 4” value ([3]; Example 1 material, Start) was 0.26%, the “Impurity 5” value ([3]; Example 1 material, Start) was 0.26% and the Total impurities ([3]; Example 1 material, Start) was 0.66%. The “stability under stress conditions (summary)” value ([3]; Example 1 material, 60°C/80% relative humidity, 3 days) was “stable”, the “chemical stability: impurity profiles of initial samples vs stressed samples” value [3, 10] was “no significant increase of chemical impurities” and the “physical stability: XRPD of initial samples vs stressed samples” value (shortened to “physical stability … vs stressed samples”) [3, 10] was “No differences in reflection positions”. The “physical and chemical stability under stress conditions (summary)” value ([3]; Example 3 material, 60°C/80% relative humidity, 3 days) was “physically and chemically stable”, the “increase in total impurities” value [3, 11] was “below 0.5%” and the “physical stability … vs stressed samples” value [3, 11] was “No differences in reflection positions”. For the same compound, the “physical and chemical stability under temperature stress (summary)” value [4, 12] was “physically and chemically stable”, the “physical and chemical stability under temperature stress (summary)” value [4, 13] was “physically and chemically stable” and the “Impurity 1” value [4, 14] was 0.07%. For the same compound, the “Impurity 2” value [4, 14] was ≤0.05%, the “Impurity 3” value [4, 14] was 0.07% and the “Impurity 4” value [4, 14] was 0.24%. The “Impurity 5” value [4, 14] was 0.26%, the “Total Imp.” value [4, 14] was 0.64% and the “Impurity 1” value [4, 15] was 0.07%. The “Impurity 2” value [4, 15] was ≤0.05%, the “Impurity 3” value [4, 15] was 0.06% and the “Impurity 4” value [4, 15] was 0.23%. For the same compound, the “Impurity 5” value [4, 15] was 0.25%, the “Total Imp.” value [4, 15] was 0.61% and the “Impurity 1” value [4, 12] was 0.07%. For the same compound, the “Impurity 2” value [4, 12] was ≤0.05%, the “Impurity 3” value [4, 12] was 0.07% and the “Impurity 4” value [4, 12] was 0.24%. The “Impurity 5” value [4, 12] was 0.31%, the “Total Imp.” value [4, 12] was 0.69% and the “Impurity 1” value [4, 13] was 0.07%. For the same compound, the “Impurity 2” value [4, 13] was ≤0.05%, the “Impurity 3” value [4, 13] was 0.06% and the “Impurity 4” value [4, 13] was 0.23%. The “Impurity 5” value [4, 13] was 0.25%, the “Total Imp.” value [4, 13] was 0.61% and the “Impurity 1” value ([4]; Example 1 material, Start) was 0.08%. For the same compound, the “Impurity 2” value ([4]; Example 1 material, Start) was 0.06%, the “Impurity 3” value ([4]; Example 1 material, Start) was ≤0.05% and the “Impurity 4” value ([4]; Example 1 material, Start) was 0.26%. For the same compound, the “Impurity 5” value ([4]; Example 1 material, Start) was 0.26%, the “Total Imp.” value ([4]; Example 1 material, Start) was 0.66% and the “chemical stability: impurity profiles of initial samples vs stressed samples” value [4, 16] was “remained chemically stable”. The “physical stability … vs stressed samples” value [4, 16] was “No differences in reflection positions”, the “chemical stability: impurity profiles of initial samples vs stressed samples” value [4, 17] was “remained chemically stable” and the “physical stability … vs stressed samples” value [4, 17] was “No differences in reflection positions”. For the same compound, the “physical and chemical stability under temperature stress (summary)” value ([4]; Example 3 material, 105°C, 24 hours) was “physically and chemically stable”, the “increase in total impurities” value [4, 18] was “below 0.5%” and the “physical stability … vs stressed samples” value [4, 18] was “No differences in reflection positions”. The water uptake ([5]; material obtained from ACN/H2O (Example 3)) was “about 3.1 % (w/w)”, the water uptake ([5]; material obtained from IPA/H2O (Example 1)) was “about 3.6 % (w/w)” and the “bioaccessibility profile, crystalline form versus amorphous Compound A” value ([6]; tablets) was “comparable bioaccessibility profiles”. The “effect of PSD and amorphous content on bioaccessibility and concentration profiles” value ([6]; tablets from batches of Table 15 (amorphous content 6-75%, D50 3.6-25.0 μm)) was “did not have a significant effect”.
